Read-outs that look alike come from different tables or passages of the source.
Assays:
Assay type in all cases: cell-based
[1] = tested on: human MD-MBA-231 breast cancer cells; experiment: CellTiter-Blue cell viability, monotherapy
Description: (§1) CellTiter-Blue® Reagent Method: Following incubation with test compounds for 72 or 96 hours, human MD-MBA-231 breast cancer cells were briefly washed, […] stained with the CellTiter-Blue® Reagent resazurin. Resazurin measures the metabolic capacity of cells, an indicator of cell viability. Viable cells retain the ability to reduce resazurin into resorufin, that is highly fluorescent. […] This test measures the degree of cytotoxicity caused by the test material. IC50 determination: Data are expressed as the percentage of survival of the untreated (vehicle) control calculated from the fluorescence corrected for background absorbance. The surviving fraction of cells were determined by dividing the mean fluorescence values of the test agents by the mean fluorescence values of untreated control. The inhibitory concentration value for the test agent(s) and control were estimated using Prism 4 software (GraphPad Software, Inc.) by curve-fitting the data using the non-linear regression analysis. In some instances IC50 values could not be extrapolated and these are marked (*).

[2] = tested on: human MD-MBA-231 breast cancer cells; experiment: CellTiter-Blue cell viability, concurrent combination treatment with doxorubicin; conditions: for 72 Hours IC10 Doxorubicin / 96 Hours IC10 Doxorubicin: concurrent combination with IC10 of Adriamycin (doxorubicin); for 72 Hours IC30 Doxorubicin / 96 Hours IC30 Doxorubicin: concurrent combination with IC30 of Adriamycin (doxorubicin)
Description: as §1, with “(*). Compounds of the invention were tested as monotherapy and results presented in TABLE 1 Compounds of the invention were tested in combination with inhibitory concentration 30% and 10% (IC30/IC10) of Adriamycin (doxorubicin) and results presented in TABLE 2” for “(*).”

[3] = tested on: human MD-MBA-231 breast cancer cells; experiment: CellTiter-Blue cell viability, 6-hour pretreatment before doxorubicin administration; conditions: for 72 Hours IC10 Doxorubicin / 96 Hours IC10 Doxorubicin: 6-hour pretreatment with compound before IC10 doxorubicin; for 72 Hours IC30 Doxorubicin / 96 Hours IC30 Doxorubicin: 6-hour pretreatment with compound before IC30 doxorubicin
Description: as §1, with “(*). Compounds of the invention were tested as monotherapy and results presented in TABLE 1 Compounds of the invention were tested in combination with inhibitory concentration 30% and 10% (IC30/IC10) of Adriamycin (doxorubicin) following 6 hours of pretreatment with example compounds and results presented in TABLE 3” for “(*).”

[4] = 72 hours incubation, read-out: 72 Hours Treatment IC50
[5] = 96 hours incubation, read-out: 96 Hours Treatment IC50

Compound	IC50 [1, 4]	IC50 [1, 5]	72 Hours IC10 Doxorubicin [2]	96 Hours IC10 Doxorubicin [2]	72 Hours IC30 Doxorubicin [2]	96 Hours IC30 Doxorubicin [2]	72 Hours IC10 Doxorubicin [3]	96 Hours IC10 Doxorubicin [3]	72 Hours IC30 Doxorubicin [3]	96 Hours IC30 Doxorubicin [3]
CC(=O)N[C@@H](CS)C(=O)NCCC[Si](C)(C)C [Eample 1, (R)-2-acetamido-3-mercapto-N-(3-(trimethylsilyl)propyl)propanamide]	21.6 µM	18.8 µM	7.49 µM	6.703 µM	29.67 µM	26.70 µM	27.13 µM	34.20 µM	10.04 µM	2.162 µM
CC(=O)N[C@@H](CS)C(=O)NC[Si](C)(C)C [Example 2, (R)-2-acetamido-3-mercapto-N-((trimethylsilyl)methyl)propanamide]	132 µM	136 µM	49.42 µM	34.55 µM	269.0 µM	–	210.70 µM	–	56.64 µM	14.68 µM
CC(=O)N[C@@H](CS)C(=O)NC[Si](C)(C)c1ccccc1 [Example 3, (R)-2-acetamido-N-((dimethyl(phenyl)silyl)methyl)-3-mercaptopropanamide]	28.1 µM	24.3 µM	8.553 µM	9.479 µM	39.29 µM	30.63 µM	35.69 µM	37.88 µM	11.21 µM	3.799 µM
CC(=O)N[C@@H](CS)C(=O)O [N-Acetyl-L-Cysteine, reference compound]	277 µM	–	129.70 µM	–	639.30 µM	925.2 µM	499.10 µM	454.10 µM	–	–

From patent publication US20090306015A1, “PHARMACEUTICAL COMPOSITIONS AND METHODS OF USE OF HIGHLY LIPOPHILIC SULFHYDRYL COMPOUNDS” (Silamed, Inc., priority 2005, published 2009)
